The record followed here is US20210052703A1 (SHANGHAI BENEMAE PHARMACEUTICAL CORPORATION, priority 2018, published 2021).

Structures are written as SMILES.

This assay relates to patients with type 2 diabetes. Briefly: trial 5C: Beinaglutide with metformin, multicenter, type 2 diabetes. The class given is in vivo, human. To be noted: control group (metformin alone group); 12 weeks of treatment. The text has this:
Note: Covariance analysis was used for comparison between groups. The dependent variable was the change in body weight relative to baseline, and the covariate was baseline. Body weight change from baseline=post-treatment−baseline. Data from 5C test data.

Take `CN(C)C(=N)N=C(N)N` [metformin, reference compound]: the “proportion of subjects with weight loss from the baseline ≥3%” value came to 27.27% and the “proportion of subjects with weight loss ≥5%” value was found to be 10.39%.
